Data set [1] deals with Mycobacterium tuberculosis. The data set can be described thus: Growth inhibition of Mycobacterium tuberculosis H37Ra ATCC 25177 at 30 ug/ml by XTT dye based two-fold dilution method relative to control. The class given is functional. The following applies: read-out: GI. A general note: Formazan colour is commonly taken as a measure of viable cells.
Data set [2] deals with Mycobacterium tuberculosis. The data set can be described thus: Growth inhibition of Mycobacterium tuberculosis H37Ra ATCC 25177 at 10 ug/ml by XTT dye based two-fold dilution method relative to control. The class given is functional. The following applies: read-out: GI.
The subject of data set [3] is Mycobacterium tuberculosis. The data set can be described thus: Growth inhibition of Mycobacterium tuberculosis H37Ra ATCC 25177 at 3 ug/ml by XTT dye based two-fold dilution method relative to control. The class given is functional. The following applies: read-out: GI.
Data set [4] deals with Mycobacterium tuberculosis. The data set can be described thus: Growth inhibition of Mycobacterium bovis BCG ATCC 35743 at 30 ug/ml by nitrate reductase based two-fold dilution assay relative to control. Format: functional. The following applies: BCG str. ATCC 35743, read-out: GI.
The test system of data set [5] is Mycobacterium tuberculosis. The data set can be described thus: Growth inhibition of Mycobacterium bovis BCG ATCC 35743 at 10 ug/ml by nitrate reductase based two-fold dilution assay relative to control. The class given is functional. The note with it: BCG str. ATCC 35743, read-out: GI.
Data set [6] relates to Mycobacterium tuberculosis. The data set can be described thus: Growth inhibition of Mycobacterium bovis BCG ATCC 35743 at 1 ug/ml by nitrate reductase based two-fold dilution assay relative to control. Format: functional. The following applies: BCG str. ATCC 35743, read-out: GI.
Data set [7] has as its system Mycobacterium tuberculosis. The data set can be described thus: Antitubercular activity against Mycobacterium tuberculosis H37Ra ATCC 25177 dormant stage by XTT dye based two-fold dilution method. Format: functional.
Data set [8] relates to Mycobacterium tuberculosis. The data set can be described thus: Antitubercular activity against Mycobacterium bovis BCG ATCC 35743 dormant stage by nitrate reductase based two-fold dilution assay. Format: functional. The note with it: BCG str. ATCC 35743.
A short description of data set [9]: (§1) Growth inhibition of human HeLa cells by MTT assay. The class given is cell-based. The note with it: HeLa cells.
The subject of data set [10] is HeLa. Described as §1. Format: cell-based. The following applies: hela.
Data set [11] is described as follows: (§2) Growth inhibition of human A549 cells by MTT assay. The class given is cell-based. The note with it: A549 cells.
The subject of data set [12] is A549. The description is as §2. The class given is cell-based. The note with it: a549.
Data set [13] can be described thus: (§3) Growth inhibition of human PANC1 cells by MTT assay. The following applies: PANC-1 cells. The class given is cell-based, PANC-1.
Data set [14] deals with PANC-1. The data set is described as §3. The class given is cell-based. The note with it: panc-1.

This is an account of results in ChEMBL document CHEMBL4024727, “Synthesis and antimycobacterial screening of new thiazolyl-oxazole derivatives” (Eur J Med Chem, 2017).

Values after ≈ are worked out from the molar mass of the structure shown.

In the case of `CO[C@H]1/C=C/O[C@@]2(C)Oc3c(C)c(O)c4c(O)c(c(/C=N/N5CCN(C)CC5)c(O)c4c3C2=O)NC(=O)/C(C)=C\C=C\[C@H](C)[C@H](O)[C@@H](C)[C@@H](O)[C@@H](C)[C@H](OC(C)=O)[C@@H]1C` [RIFAMPIN], the inhibition of growth at 30 µg/mL amounted to 99.5% in data set [1] and 99% in data set [4]. In addition, the results for the inhibition of growth at 10 µg/mL in [2] and in data set [5] were 98% and 96.8%, respectively. Also, the inhibition of growth at 3 µg/mL in [3] was determined as 96.4%. In [6], the inhibition of growth at 1 µg/mL turned out to be 94.6%. The IC50 in data set [7] was determined as 2.4 nM; in data set [8], 40 nM. Also, the values for the MIC90 in data set [7] and in data set [8] were 0.91 µM (≈ 0.749 µg/mL) and 0.98 µM (≈ 0.806 µg/mL), respectively. The concentration for 50% growth inhibition (GI50) in [9], in [11] and in [13] was > 100 µg/mL in each case. For the same compound, the GI90 in data set [10], in data set [12] and in data set [14] was > 100 µg/mL in each case.

The IC50 is the point on the concentration scale where inhibition reaches its midpoint. For orientation: MIC90 means the lowest concentration that inhibits either 90% of growth or 90% of the strains tested, depending on the study. Higher therefore signals lower susceptibility. By GI50 is commonly meant the concentration giving 50% growth inhibition. High values mean less potent growth inhibition, low ones more potent growth inhibition.
